We go through one compound from PMC9234961 (Journal of Medicinal Chemistry, 2022).

Assay type in all cases: cell-based
One assay addresses ADORA2A (Homo sapiens, UniProt P29274). Description: SAFETYScan GPCR Calcium Flux, Agonist. An excerpt:
(§1) Supplement jm1c02175_si_002.xlsx, sheet "SAFETYScan" | column: RC50 (uM); Max Response
(In general: Calcium flux is commonly read through the fluorescence of an indicator in the cells.)

Another assay concerns the target AVPR1A (Homo sapiens, UniProt P37288). As to the kind of experiment: SAFETYScan GPCR Calcium Flux, Agonist.
Text: as §1

Another assay addresses T1, CCKAR (Homo sapiens, UniProt P32238).
T1 sequence (P32238 1-428): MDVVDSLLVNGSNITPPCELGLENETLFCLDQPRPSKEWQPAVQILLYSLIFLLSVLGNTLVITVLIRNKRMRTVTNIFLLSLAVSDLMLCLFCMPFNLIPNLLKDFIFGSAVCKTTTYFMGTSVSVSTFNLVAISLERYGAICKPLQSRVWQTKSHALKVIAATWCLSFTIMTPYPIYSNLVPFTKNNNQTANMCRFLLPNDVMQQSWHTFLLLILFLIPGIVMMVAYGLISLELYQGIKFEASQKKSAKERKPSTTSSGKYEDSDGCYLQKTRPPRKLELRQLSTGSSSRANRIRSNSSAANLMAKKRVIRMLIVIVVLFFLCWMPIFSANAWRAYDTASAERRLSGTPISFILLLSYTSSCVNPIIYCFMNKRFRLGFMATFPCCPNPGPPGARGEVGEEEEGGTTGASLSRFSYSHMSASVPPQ
As to the kind of experiment: SAFETYScan GPCR Calcium Flux, Agonist.
Text: as §1

A further assay addresses T2, CHRM1 (Homo sapiens, UniProt P11229).
T2 sequence (P11229 1-460): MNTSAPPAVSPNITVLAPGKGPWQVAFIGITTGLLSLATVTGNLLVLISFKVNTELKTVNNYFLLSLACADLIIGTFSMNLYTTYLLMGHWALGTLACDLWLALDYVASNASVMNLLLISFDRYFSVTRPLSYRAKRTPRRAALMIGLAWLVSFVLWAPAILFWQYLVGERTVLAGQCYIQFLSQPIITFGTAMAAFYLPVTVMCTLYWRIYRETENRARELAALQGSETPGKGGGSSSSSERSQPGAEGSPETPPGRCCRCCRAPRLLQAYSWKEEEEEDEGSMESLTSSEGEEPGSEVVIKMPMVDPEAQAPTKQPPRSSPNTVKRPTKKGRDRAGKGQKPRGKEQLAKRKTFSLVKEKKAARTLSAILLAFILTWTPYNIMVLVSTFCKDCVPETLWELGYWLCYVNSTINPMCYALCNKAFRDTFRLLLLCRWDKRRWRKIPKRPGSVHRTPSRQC
As to the kind of experiment: SAFETYScan GPCR Calcium Flux, Agonist.
Text: as §1

The next assay addresses CHRM3 (Homo sapiens, UniProt P20309). As to the kind of experiment: SAFETYScan GPCR Calcium Flux, Agonist.
Text: as §1

The next assay concerns the target T3, EDNRA (Homo sapiens, UniProt P25101).
T3 sequence (P25101 21-427): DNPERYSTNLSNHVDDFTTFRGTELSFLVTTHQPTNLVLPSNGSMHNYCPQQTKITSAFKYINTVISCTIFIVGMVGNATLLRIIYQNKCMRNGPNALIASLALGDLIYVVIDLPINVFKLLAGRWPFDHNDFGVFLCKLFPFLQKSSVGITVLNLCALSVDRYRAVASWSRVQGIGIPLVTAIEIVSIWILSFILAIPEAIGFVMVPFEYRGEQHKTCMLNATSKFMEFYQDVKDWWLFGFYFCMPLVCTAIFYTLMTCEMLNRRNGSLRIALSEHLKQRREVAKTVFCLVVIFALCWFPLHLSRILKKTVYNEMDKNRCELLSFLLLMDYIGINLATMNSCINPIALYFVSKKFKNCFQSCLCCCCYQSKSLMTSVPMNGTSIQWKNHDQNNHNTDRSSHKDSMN
As to the kind of experiment: SAFETYScan GPCR Calcium Flux, Agonist.
Text: as §1

The target of the next assay is HRH1 (Homo sapiens, UniProt P35367). Description: SAFETYScan GPCR Calcium Flux, Agonist.
HRH1, sequence (P35367 whole entry): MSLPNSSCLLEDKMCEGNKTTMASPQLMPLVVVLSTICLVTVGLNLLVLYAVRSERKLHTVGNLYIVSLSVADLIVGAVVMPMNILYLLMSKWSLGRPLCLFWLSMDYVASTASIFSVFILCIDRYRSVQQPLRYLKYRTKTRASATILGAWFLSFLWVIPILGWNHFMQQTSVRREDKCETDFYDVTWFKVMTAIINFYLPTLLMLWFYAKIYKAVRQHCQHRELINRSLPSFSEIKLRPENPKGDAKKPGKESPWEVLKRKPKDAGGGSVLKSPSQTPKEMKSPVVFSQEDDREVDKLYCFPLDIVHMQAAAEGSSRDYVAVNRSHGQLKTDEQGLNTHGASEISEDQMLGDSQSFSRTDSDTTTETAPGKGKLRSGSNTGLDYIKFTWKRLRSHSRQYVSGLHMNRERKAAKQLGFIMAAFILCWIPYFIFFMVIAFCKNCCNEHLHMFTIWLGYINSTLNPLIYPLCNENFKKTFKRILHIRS
Text: as §1

The target in another assay is HTR2A (Homo sapiens, UniProt P28223). As to the kind of experiment: SAFETYScan GPCR Calcium Flux, Agonist.
HTR2A, sequence (P28223 whole entry): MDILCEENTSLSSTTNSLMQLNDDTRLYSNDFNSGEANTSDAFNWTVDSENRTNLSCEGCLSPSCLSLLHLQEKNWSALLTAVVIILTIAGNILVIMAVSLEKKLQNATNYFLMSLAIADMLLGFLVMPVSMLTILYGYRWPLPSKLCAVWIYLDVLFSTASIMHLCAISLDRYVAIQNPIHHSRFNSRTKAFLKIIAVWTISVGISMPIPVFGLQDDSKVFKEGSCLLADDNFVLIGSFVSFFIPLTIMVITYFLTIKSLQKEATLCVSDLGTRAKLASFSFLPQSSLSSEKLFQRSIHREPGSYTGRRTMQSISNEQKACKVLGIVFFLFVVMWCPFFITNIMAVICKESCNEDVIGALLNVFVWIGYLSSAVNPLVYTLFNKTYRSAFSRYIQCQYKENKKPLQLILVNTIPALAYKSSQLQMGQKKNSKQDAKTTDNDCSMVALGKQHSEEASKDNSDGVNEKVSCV
Text: as §1

Another assay has as its target T4, HTR2B (Homo sapiens, UniProt P41595).
T4 construct: expressed in transfected cells
Description: SAFETYScan GPCR Calcium Flux, Agonist.
Text: as §1

The next assay addresses T5, GR (Homo sapiens, UniProt P04150).
T5 sequence (P04150 1-777): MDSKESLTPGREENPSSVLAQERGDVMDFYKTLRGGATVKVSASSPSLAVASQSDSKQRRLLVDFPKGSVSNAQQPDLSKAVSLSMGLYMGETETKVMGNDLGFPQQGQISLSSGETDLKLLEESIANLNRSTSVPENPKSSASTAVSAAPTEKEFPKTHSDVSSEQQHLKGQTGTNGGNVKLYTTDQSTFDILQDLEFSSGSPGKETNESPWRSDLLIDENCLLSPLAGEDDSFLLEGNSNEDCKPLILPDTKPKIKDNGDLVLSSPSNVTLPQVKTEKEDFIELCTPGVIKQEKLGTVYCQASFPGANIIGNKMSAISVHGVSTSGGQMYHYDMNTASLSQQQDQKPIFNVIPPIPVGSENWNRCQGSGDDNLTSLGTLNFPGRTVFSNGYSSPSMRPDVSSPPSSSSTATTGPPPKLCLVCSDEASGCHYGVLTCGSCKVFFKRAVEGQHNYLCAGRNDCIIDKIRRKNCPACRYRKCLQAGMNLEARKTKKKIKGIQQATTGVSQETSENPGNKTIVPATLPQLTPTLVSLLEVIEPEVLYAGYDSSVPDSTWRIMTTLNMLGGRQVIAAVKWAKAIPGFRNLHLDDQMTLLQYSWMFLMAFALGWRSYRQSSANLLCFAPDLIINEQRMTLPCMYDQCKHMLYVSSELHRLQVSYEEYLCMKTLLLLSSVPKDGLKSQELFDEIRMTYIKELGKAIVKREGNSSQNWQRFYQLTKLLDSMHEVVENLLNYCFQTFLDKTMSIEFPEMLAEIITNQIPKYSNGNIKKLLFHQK
Description: SAFETYScan NHR Protein Interaction, Antagonist.
Text: as §1

Some results are limits rather than exact numbers.

AVPR1A, sequence (P37288 whole entry): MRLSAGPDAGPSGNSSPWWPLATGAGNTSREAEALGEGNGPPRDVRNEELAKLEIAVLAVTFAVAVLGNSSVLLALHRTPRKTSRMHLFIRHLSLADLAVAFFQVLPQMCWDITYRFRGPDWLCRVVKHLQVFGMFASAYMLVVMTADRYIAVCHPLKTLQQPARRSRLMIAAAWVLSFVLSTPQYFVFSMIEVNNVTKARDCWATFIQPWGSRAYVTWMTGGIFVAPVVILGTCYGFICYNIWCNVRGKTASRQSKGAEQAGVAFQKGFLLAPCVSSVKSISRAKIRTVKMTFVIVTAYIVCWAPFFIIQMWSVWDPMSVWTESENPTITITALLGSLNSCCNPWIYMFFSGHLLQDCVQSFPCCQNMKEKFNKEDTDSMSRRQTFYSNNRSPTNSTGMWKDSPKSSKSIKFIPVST
ADORA2A, sequence (P29274 whole entry): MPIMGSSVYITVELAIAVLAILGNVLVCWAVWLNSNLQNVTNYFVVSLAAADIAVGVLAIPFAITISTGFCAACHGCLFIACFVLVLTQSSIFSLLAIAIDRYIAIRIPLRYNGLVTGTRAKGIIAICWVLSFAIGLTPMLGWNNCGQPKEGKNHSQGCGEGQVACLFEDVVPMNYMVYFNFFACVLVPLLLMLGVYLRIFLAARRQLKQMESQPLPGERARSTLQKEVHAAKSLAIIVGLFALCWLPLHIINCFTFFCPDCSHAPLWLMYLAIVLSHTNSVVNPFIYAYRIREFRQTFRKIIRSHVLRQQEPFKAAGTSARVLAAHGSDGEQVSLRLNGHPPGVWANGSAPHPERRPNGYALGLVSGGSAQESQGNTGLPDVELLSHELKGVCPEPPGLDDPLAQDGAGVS
T4 sequence (P41595 whole entry): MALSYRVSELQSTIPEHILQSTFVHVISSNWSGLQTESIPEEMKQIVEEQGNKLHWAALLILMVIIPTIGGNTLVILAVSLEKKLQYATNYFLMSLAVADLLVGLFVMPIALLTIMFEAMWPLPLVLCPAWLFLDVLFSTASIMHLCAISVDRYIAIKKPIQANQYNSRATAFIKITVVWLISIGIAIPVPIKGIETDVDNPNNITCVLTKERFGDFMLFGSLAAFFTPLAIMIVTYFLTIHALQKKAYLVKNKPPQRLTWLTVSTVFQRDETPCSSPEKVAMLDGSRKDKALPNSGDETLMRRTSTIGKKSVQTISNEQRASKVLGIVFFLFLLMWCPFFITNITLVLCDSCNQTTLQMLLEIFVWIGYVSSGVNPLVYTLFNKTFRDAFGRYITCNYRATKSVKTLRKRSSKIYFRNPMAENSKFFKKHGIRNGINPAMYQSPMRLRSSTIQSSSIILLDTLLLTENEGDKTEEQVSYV
CHRM3, sequence (P20309 whole entry): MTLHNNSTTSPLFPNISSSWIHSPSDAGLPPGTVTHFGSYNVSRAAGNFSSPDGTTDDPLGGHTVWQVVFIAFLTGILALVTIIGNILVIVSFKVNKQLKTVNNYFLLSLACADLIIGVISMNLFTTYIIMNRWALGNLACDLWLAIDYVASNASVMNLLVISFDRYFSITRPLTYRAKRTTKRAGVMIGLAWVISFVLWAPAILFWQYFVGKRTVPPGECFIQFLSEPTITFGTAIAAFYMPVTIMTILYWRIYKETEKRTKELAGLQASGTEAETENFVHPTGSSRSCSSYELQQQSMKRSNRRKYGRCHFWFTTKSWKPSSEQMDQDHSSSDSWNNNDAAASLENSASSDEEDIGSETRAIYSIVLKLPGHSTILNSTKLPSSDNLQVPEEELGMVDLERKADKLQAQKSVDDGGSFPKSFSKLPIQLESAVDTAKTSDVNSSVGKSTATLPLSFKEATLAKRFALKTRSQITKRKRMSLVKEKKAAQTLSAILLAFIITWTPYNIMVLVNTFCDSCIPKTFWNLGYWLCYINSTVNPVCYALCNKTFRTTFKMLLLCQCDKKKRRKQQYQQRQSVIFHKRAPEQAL

As usually defined, the EC50 is the concentration giving half of the maximal effect. As usually defined, the IC50 is the midpoint of a concentration-inhibition curve. As to `C[C@H]1C[C@@H](O)CN(c2ncc(Cl)c(Nc3ccc4c(c3)c3c(c(=O)n4C)OCC(F)(F)[C@H](C4CC4)N3)n2)C1` [12a CCT373566, (S)-10-((5-Chloro-2-((3R,5S)-3-hydroxy-5-methylpiperidin-1-yl)pyrimidin-4-yl)amino)-2-cyclopropyl-3,3-difluoro-7-methyl-1,2,3,4-tetrahydro-[1,4]oxazepino[2,3-c]quinolin-6(7H)-one], the Emax on ADORA2A (read-out: Max Response) was 0%; on AVPR1A (read-out: Max Response), 4.09%; at CCKAR (read-out: Max Response) it was 2.17%; at CHRM1 (read-out: Max Response), 3.12%; at CHRM3 (read-out: Max Response) it was 3.17%; on EDNRA (read-out: Max Response), 0.25%. The Emax was determined as 1.78% on HRH1 (read-out: Max Response), 0% on HTR2A (read-out: Max Response), 1.98% at HTR2B (read-out: Max Response) and 2.11% at GR (read-out: Max Response). For the same compound, the EC50 at ADORA2A (read-out: RC50 (EC50)), at AVPR1A (read-out: RC50 (EC50)), on CCKAR (read-out: RC50 (EC50)), on CHRM1 (read-out: RC50 (EC50)), on CHRM3 (read-out: RC50 (EC50)) and on EDNRA (read-out: RC50 (EC50)) was greater than 10 µM each time. Further, the EC50 at HRH1 (read-out: RC50 (EC50)), on HTR2A (read-out: RC50 (EC50)) and on HTR2B (read-out: RC50 (EC50)) was greater than 10 µM each time. The concentration for half-maximal inhibition (IC50) on GR (read-out: RC50 (IC50)) is greater than 10 µM.
